In PubChem BioAssay AID328 (DTP/NCI, 2004):
Values joined by “and” are separate entries in the source; they are usually repeats but may differ in a detail not shown here. Identical values can stand only once. Inconclusive results and toxic doses are left out.

System: BDF1 mice, P388 leukemia ip, median survival T/C
Experiment: NCI In Vivo Anticancer Drug Screen. Data for tumor model P388 Leukemia (intraperitoneal) in B6D2F1 (BDF1) mice
Conditions: endpoint: median survival time, higher = longer survival
Method in brief: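 Read-out is survival of treated animals expressed relative to the vehicle group, as a T/C ratio.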

[1] = dose: 50.0 mg/kg/injection, schedule: Q01DX009 (ip), vehicle: saline with Tween-80
[2] = dose: 100.0 mg/kg/injection, schedule: Q01DX009 (ip), vehicle: saline with Tween-80
[3] = dose: 200.0 mg/kg/injection, schedule: Q01DX009 (ip), vehicle: saline with Tween-80
[4] = dose: 400.0 mg/kg/injection, schedule: Q01DX009 (ip), vehicle: saline with Tween-80
[5] = dose: 50.0 mg/kg/injection, schedule: Q04DX003 (ip), vehicle: saline with Tween-80
[6] = dose: 100.0 mg/kg/injection, schedule: Q04DX003 (ip), vehicle: saline with Tween-80
[7] = dose: 200.0 mg/kg/injection, schedule: Q04DX003 (ip), vehicle: saline with Tween-80

Which T/C (dose: 5.0 mg/kg/injection, schedule: Q01DX009 (ip), vehicle: saline) does the source give for `O=P(N1CCCCCC1)(N1CC1)N1CC1` here?
The T/C was 168 % of control.

And the T/C (dose: 6.25 mg/kg/injection, schedule: Q04DX003 (ip), vehicle: saline)?
The T/C was 95 % of control.

And the T/C (dose: 7.0 mg/kg/injection, schedule: Q04DX003 (ip), vehicle: saline)?
Its T/C is 112 % of control.

What about the T/C (dose: 8.0 mg/kg/injection, schedule: Q01DX009 (ip), vehicle: saline) of the same molecule?
Its T/C is 157 % of control and 222 % of control.

What about the T/C (dose: 11.0 mg/kg/injection, schedule: Q04DX003 (ip), vehicle: saline) of the same molecule?
Its T/C is 150 % of control.

And the T/C (dose: 16.5 mg/kg/injection, schedule: Q04DX003 (ip), vehicle: saline)?
Its T/C is 180 % of control.

And the T/C (dose: 17.0 mg/kg/injection, schedule: Q04DX003 (ip), vehicle: saline)?
Its T/C is 166 % of control and 181 % of control.

And the T/C (dose: 25.0 mg/kg/injection, schedule: Q04DX003 (ip), vehicle: saline)?
Its T/C is 218 % of control [middle of 4 runs].

What about the T/C (dose: 50.0 mg/kg/injection, schedule: Q04DX003 (ip), vehicle: saline) of the same molecule?
Its T/C is 162 % of control.

What does the source list for `O=C(NC1CCOC1=O)OCc1ccccc1` (stereo not drawn)?
T/C [1]: 100 % of control; T/C [2]: 100 % of control; T/C [3]: 100 % of control; T/C [4]: 98 % of control

Which T/C (dose: 33.0 mg/kg/injection, schedule: Q04DX003 (ip), vehicle: saline with Tween-80) does the source give for `O=NN(CCCl)C(=O)N[C@H]1CCCC[C@@H]1Cl` here?
The T/C was 272 % of control.

What about the T/C [5] of the same molecule?
The T/C was 272 % of control.

And the T/C (dose: 75.0 mg/kg/injection, schedule: Q04DX003 (ip), vehicle: saline with Tween-80)?
The T/C was 213 % of control.

Which results are given for `C[C@]12CC[C@H](OC3OC(CO)C(O)C(O)C3O)C[C@H]1CC[C@@H]1[C@@H]2CC[C@]2(C)[C@@H](C3=CCOC3=O)CC[C@]12O` (stereo partly drawn)?
T/C (dose: 0.1 mg/kg/injection, schedule: Q01DX010 (ip), vehicle: saline): 110 % of control; T/C (dose: 0.2 mg/kg/injection, schedule: Q01DX010 (ip), vehicle: saline): 105 % of control; T/C (dose: 0.25 mg/kg/injection, schedule: Q01DX010 (ip), vehicle: saline): 100 % of control; T/C (dose: 0.4 mg/kg/injection, schedule: Q01DX010 (ip), vehicle: saline): 105 % of control; T/C (dose: 0.5 mg/kg/injection, schedule: Q01DX010 (ip), vehicle: saline): 100 % of control; T/C (dose: 0.8 mg/kg/injection, schedule: Q01DX010 (ip), vehicle: saline): 100 % of control; T/C (dose: 1.0 mg/kg/injection, schedule: Q01DX010 (ip), vehicle: saline): 100 % of control

With `C[C@]12CC[C@H](O)C=C1CC[C@@H]1[C@@H]2CC[C@]2(C)C(c3ccc(=O)oc3)CC[C@]12O` (stereo partly drawn) as the molecule, how does the T/C (dose: 6.25 mg/kg/injection, schedule: Q01DX009 (ip), vehicle: Klucel (hydroxypropylcellulose) (HPC)) read?
Its T/C is 96 % of control.

What about the T/C (dose: 12.5 mg/kg/injection, schedule: Q01DX009 (ip), vehicle: Klucel (hydroxypropylcellulose) (HPC)) of the same molecule?
Its T/C is 86 % of control.

What does the source list for `COc1cc2cnc3c4cc(OC)c(OC)cc4ccc3c2cc1OC`?
T/C (dose: 20.0 mg/kg/injection, schedule: Q01DX009 (ip), vehicle: saline with Tween-80): 100 % of control; T/C (dose: 40.0 mg/kg/injection, schedule: Q01DX009 (ip), vehicle: saline with Tween-80): 100 % of control; T/C (dose: 80.0 mg/kg/injection, schedule: Q01DX009 (ip), vehicle: saline with Tween-80): 115 % of control; T/C (dose: 120.0 mg/kg/injection, schedule: Q01DX009 (ip), vehicle: saline with Tween-80): 100 % of control; T/C (dose: 240.0 mg/kg/injection, schedule: Q01DX009 (ip), vehicle: saline with Tween-80): 100 % of control

`Cc1noc(C)c1CON` was tested. Which T/C (dose: 12.5 mg/kg/injection, schedule: Q01DX009 (ip), vehicle: saline) did it give?
Its T/C is 91 % of control.

What about the T/C (dose: 25.0 mg/kg/injection, schedule: Q01DX009 (ip), vehicle: saline) of the same molecule?
The T/C was 91 % of control.

What about the T/C (dose: 50.0 mg/kg/injection, schedule: Q01DX009 (ip), vehicle: saline) of the same molecule?
The T/C was 95 % of control.

Which T/C (dose: 25.0 mg/kg/injection, schedule: Q04DX003 (ip), vehicle: saline with Tween-80) does the source give for `Nc1nc(=O)[nH]c(N)c1N=O` here?
The T/C was 98 % of control.

And the T/C [5]?
The T/C was 107 % of control.

And the T/C [6]?
The T/C was 100 % of control.

And the T/C [7]?
The T/C was 100 % of control.

What about the T/C (dose: 400.0 mg/kg/injection, schedule: Q04DX003 (ip), vehicle: saline with Tween-80) of the same molecule?
The T/C was 102 % of control.

`CC(Br)C(=O)NCC(=O)O` (stereo not drawn) was tested. Which T/C [5] did it give?
Its T/C is 90 % of control.

What about the T/C [6] of the same molecule?
Its T/C is 95 % of control.

What about the T/C [7] of the same molecule?
Its T/C is 100 % of control.

`NCCNc1c[nH]c(=O)[nH]c1=O` was tested. Which T/C [1] did it give?
Its T/C is 110 % of control.

What about the T/C [2] of the same molecule?
Its T/C is 103 % of control.

And the T/C [3]?
Its T/C is 103 % of control.

How did the T/C (dose: 100.0 mg/kg/injection, schedule: Q01DX009 (ip), vehicle: saline) turn out when `CC(C)=CC(=O)OCC1CC[N+](C)([O-])C1` (stereo not drawn) was run?
The T/C was 100 % of control.

What about the T/C (dose: 200.0 mg/kg/injection, schedule: Q01DX001 (ip), vehicle: saline) of the same molecule?
Its T/C is 95 % of control.

What about the T/C (dose: 200.0 mg/kg/injection, schedule: Q01DX009 (ip), vehicle: saline) of the same molecule?
The T/C was 91 % of control.

And the T/C (dose: 400.0 mg/kg/injection, schedule: Q01DX009 (ip), vehicle: saline)?
Its T/C is 103 % of control.

What about the T/C (dose: 800.0 mg/kg/injection, schedule: Q01DX001 (ip), vehicle: saline) of the same molecule?
Its T/C is 91 % of control.

And the T/C (dose: 800.0 mg/kg/injection, schedule: Q01DX009 (ip), vehicle: saline)?
The T/C was 103 % of control.

With `COC(=O)C1CN1C(c1ccccc1)(c1ccccc1)c1ccccc1` (stereo not drawn) as the molecule, how does the T/C [3] read?
Its T/C is 95 % of control.

What about the T/C [4] of the same molecule?
The T/C was 87 % of control.

For `O=C1c2ccccc2C(=O)N1CNc1ccc(Cc2ccc(NCN3C(=O)c4ccccc4C3=O)c(Cl)c2)cc1Cl`, which T/C (dose: 100.0 mg/kg/injection, schedule: Q01DX009 (ip), vehicle: Klucel (hydroxypropylcellulose) (HPC)) is on record?
Its T/C is 100 % of control.

And the T/C (dose: 100.0 mg/kg/injection, schedule: Q04DX003 (ip), vehicle: Klucel (hydroxypropylcellulose) (HPC))?
Its T/C is 100 % of control.

And the T/C (dose: 200.0 mg/kg/injection, schedule: Q01DX009 (ip), vehicle: Klucel (hydroxypropylcellulose) (HPC))?
The T/C was 100 % of control.

And the T/C (dose: 200.0 mg/kg/injection, schedule: Q04DX003 (ip), vehicle: Klucel (hydroxypropylcellulose) (HPC))?
Its T/C is 95 % of control.

And the T/C (dose: 400.0 mg/kg/injection, schedule: Q01DX009 (ip), vehicle: Klucel (hydroxypropylcellulose) (HPC))?
Its T/C is 90 % of control.

And the T/C (dose: 400.0 mg/kg/injection, schedule: Q04DX003 (ip), vehicle: Klucel (hydroxypropylcellulose) (HPC))?
The T/C was 95 % of control.
